Test results reported in US8097733B2, “Pyrazole derivatives as 5-LO-inhibitors” (Pfizer Inc., priority 2007, dated 2012).

How the values were obtained:
recombinant human 5-LOX = target: T1, recombinant human 5-LOX (Homo sapiens, UniProt P09917); assay: Fluorescence Intensity 5-LOX Enzyme Assay; assay type: biochemical; details: crude lysate of recombinant human 5-LOX; highest inhibitor concentration tested typically 25 μM
T1 sequence (P09917 1-674): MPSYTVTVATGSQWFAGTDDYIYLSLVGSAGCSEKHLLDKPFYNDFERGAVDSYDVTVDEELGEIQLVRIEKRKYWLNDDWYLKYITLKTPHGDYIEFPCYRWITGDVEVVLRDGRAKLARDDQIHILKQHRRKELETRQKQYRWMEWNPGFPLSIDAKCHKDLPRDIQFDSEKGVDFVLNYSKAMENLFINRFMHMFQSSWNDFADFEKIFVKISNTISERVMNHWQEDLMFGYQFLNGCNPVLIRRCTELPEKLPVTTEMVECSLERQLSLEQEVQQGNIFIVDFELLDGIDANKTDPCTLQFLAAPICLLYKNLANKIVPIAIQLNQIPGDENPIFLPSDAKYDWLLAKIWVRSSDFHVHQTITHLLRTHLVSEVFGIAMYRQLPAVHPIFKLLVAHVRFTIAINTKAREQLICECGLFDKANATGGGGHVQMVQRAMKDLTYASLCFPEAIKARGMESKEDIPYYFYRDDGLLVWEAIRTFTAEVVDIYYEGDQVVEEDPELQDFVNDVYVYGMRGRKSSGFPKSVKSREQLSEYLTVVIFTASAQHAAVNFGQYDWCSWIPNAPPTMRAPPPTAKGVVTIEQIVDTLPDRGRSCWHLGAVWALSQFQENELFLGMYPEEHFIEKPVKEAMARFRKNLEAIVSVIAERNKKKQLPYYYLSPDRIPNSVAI
Source text: Bio Data Assays for Allergic and Non Allergic Airways Diseases Fluorescence Intensity 5-LOX Enzyme Assay
The enzyme assay is based on the oxidation of the non-fluorescent compound 2′7′-dichlorodihydrofluorescein diacetate (H2DCFDA) to the fluorescent 2′,7′-dichlorofluorescein by 5-LOX in an arachidonic acid-dependent reaction. Ester cleavage of the acetate groups of the substrate H2DCFDA must occur prior to oxidation. This is achieved through use of a crude cell lysate preparation of recombinant human 5-LOX. The enzyme assay ([…]) contained 50 mM Tris (pH 7.5), 2 mM CaCl2, 2 mM EDTA, 3 μM arachidonic acid (Nu-Chek Prep; #S-1133), 10 μM ATP, 10 μM H2DCFDA (Invitrogen; #D399), inhibitor (varying concentration) and recombinant human 5-LOX enzyme (1.25 μL crude lysate per well).
Inhibitors (dissolved in DMSO) were plated into a 384-well assay plate (Corning #3654) at 1 μL followed by a 20 μL addition of a solution containing 5-LO enzyme and H2DCFDA. Enzyme and H2DCFDA were pre-incubated for 5 min to allow time for acetate group cleavage of the dye prior to addition to the assay plate. After a 10 min pre-incubation of inhibitor and enzyme/dye mix, the assay was initiated by the addition of a substrate solution containing arachidonic acid and ATP. The enzymatic reaction was run for 20 min at room temperature and terminated by the addition of 40 μL of acetonitrile. Assay plates were read in a plate reader using standard wavelengths for fluorescein. IC50s of inhibitors were calculated using a 4-parameter fit using 7 inhibitor concentrations in duplicate with 3-fold serial dilutions. Controls on each plate included no inhibitor (zero percent effect) and 25 μM C J-13610 (one hundred percent effect). The highest inhibitor concentration tested was typically 25 μM. The final DMSO concentration in the assay was 2.5%.

[1] = test system: human whole blood (leukotriene and prostaglandin levels); assay: Eicosanoid production from human whole blood; assay type: cell-based; details: human whole blood stimulated with calcium ionophore A23187 and arachidonic acid; ELISA
Procedure: Human whole blood is collected in 10 ml heparin tubes (Vacutainer, Becton Dickenson). Collected blood is pooled and 80 μL is dispensed into each well of 384 well polypropylene plates. A PlateMate is used to add 2 μL of compound solution in DMSO to the 80 μL of blood in the polypropylene plates. The plate, with blood and compound added, is incubated at room temperature for 10 minutes. 2 μL of a calcimycin (800 ng/ml) (A23187 C-7522, Sigma) and arachidonic acid (30 μM) (NU-Chek PREP, INC. S-1133) solution in 60% ethanol is then added to the blood using a Micromultidrop. The plates are then incubated at 37° C. in a shallow water bath for 15 minutes. Plates are then spun at 800 g for 10 minutes at 4° C. Supernatant is removed and assayed by Elisa (Caymen Chemical).
Eicosanoid Production from Human Whole Blood:
Human whole blood was collected from healthy or asthmatic human donors in 10 ml heparinized tubes (Vacutainer tubes; Becton Dickenson, Franklin Lakes, N.J.). Collected blood was pooled and 80 μL was dispensed into each well of 384 well polypropylene plates using a Multi-prop™ 384-well dispenser (Titertek, Huntsville, Ala.). Varying concentrations of compounds were dissolved in DMSO then 2 μL/well was added to the blood using a PlateMate Plus™ automated pipetting station (Matrix Technologies, Hudson, N.H.). The compounds were preincubated with the blood at room temperature for 10 minutes followed by stimulation with 40 μM calcium ionophore (A23187, Sigma Chemical Co, St. Louis, Mo., Cat. # C-7522) and 30 μM arachidonic acid (S-1133, NU-Chek PREP, Inc., Elysian, MN, Cat. # S-1133) dissolved in 60% ethanol. After 15 min incubation at 37° C. in a shallow water bath, the blood was centrifuged at 8009 for 10 minutes at 4° C., the supernatants collected, and leukotriene and prostaglandin levels measured by ELISA according to the manufacturer's directions (Cayman Chemical Company, Ann Arbor, Mich.). The assay was performed at a final concentration of 2.5% DMSO.

[2] = test system: eicosanoid production in the rat air pouch; assay: Carrageenan-induced eicosanoid production in the rat air pouch; assay type: in vivo; details: po, male Lewis rats, 3 mpk by gavage 1 hour prior to carrageenan
Procedure: Carrageenan-Induced Eicosanoid Production in the Rat Air Pouch:
Male Lewis rats (175-200 g), Charles River Laboratories, Wilmington, Mass.) were used in the study. Air pouches were produced by subcutaneous injection of 20 ml of sterile air into the intrascapular area of the back. Pouches were allowed to develop for 1 day. Animals (6 per group) were fasted with free access to water for 16 to 24 hours prior to drug administration. Drugs or vehicle were administered by gavage 1 hour prior to injection of 2 ml of a 1% suspension of carrageenan (FMC BioPolymer, Philadelphia, Pa., Cat. # GP209-NF) dissolved in saline into the pouch. At 3 hours post-carrageenan injection, 1 ml of 50 μg/ml calcium ionophore in saline (A23187, Sigma Chemical Co, St. Louis, M, Cat. #C-7522) was injected into the pouch and the pouch fluid collected 10 minutes later by lavage. The fluid was centrifuged at 3500 rpm for 10 minutes at 4° C., and the supernatants were collected for analysis. Leukotriene and prostaglandin levels were quantitated by ELISA according to the manufacturer's directions (Cayman Chemical Company, Ann Arbor, Mi).

| SMILES | IC50 (recombinant human 5-LOX) | IC50 [1] | inhibition at 3 mg/kg [2] |
| --- | --- | --- | --- |
| Cn1nccc1-c1ncc(Sc2cccc(C3(C(N)=O)CCOCC3)c2)cc1Cl [Example 11, 4-(3-{[5-chloro-6-(1-methyl-1H-pyrazol-5-yl)pyridin-3-yl]thio}phenyl)tetrahydro-2H-pyran-4-carboxamide] | 386 nM | 260 nM | 69% |
| Cn1nccc1-c1ccc([S+]([O-])c2cccc(C3(C(N)=O)CCOCC3)c2)cc1 (stereo not drawn) [Example 50, 4-(3-{[4-(1-methyl-1H-pyrazol-5-yl)phenyl]sulfinyl}phenyl)tetrahydro-2H-pyran-4-carboxamide] | ≥ 25000 nM |  | 12% |
| NC(=O)C1(c2cccc(Sc3ccc(-c4ccnn4CC4CC4)cc3)c2)CCOCC1 [Example 6, 4-[3-({4-[1-(cyclopropylmethyl)-1H-pyrazol-5-yl]phenyl}thio)phenyl]tetrahydro-2H-pyran-4-carboxamide] | 86.1 nM | 225 nM |  |
| COc1cc(C(=O)c2ccnn2C)ccc1Sc1cccc(C2(C(N)=O)CCOCC2)c1 [Example 70, 4-[3-({2-methoxy-4-[(1-methyl-1H-pyrazol-5-yl)carbonyl]phenyl}thio)phenyl]tetrahydro-2H-pyran-4-carboxamide] | 740 nM | 3130 nM |  |
| C[C@H]1C[C@@](C(N)=O)(c2cc(F)cc(Sc3ccc(-c4ccnn4C)c(F)c3)c2)CCO1 [Example 32, (2S,4R)-4-(3-fluoro-5-(3-fluoro-4-(1-methyl-1H-pyrazol-5-yl)phenylthio)phenyl)-2-methyl-tetrahydro-2H-pyran-4-carboxamide] | 16.8 nM | 232 nM |  |
| Cn1nccc1C(=O)c1ccc(Sc2cccc(C3(C(N)=O)CCOCC3)c2)cc1C(F)(F)F [Example 37, 4-[3-({4-[(1-methyl-1H-pyrazol-5-yl)carbonyl]-3-(trifluoromethyl)phenyl}thio)phenyl]tetrahydro-2H-pyran-4-carboxamide] | 60.7 nM | 394 nM |  |
| Cn1nccc1C(=O)c1ncc(Sc2cccc(C3(C(N)=O)CCOCC3)c2)cc1Cl [Example 42, 4-(3-(5-chloro-6-(1-methyl-1H-pyrazole-5-carbonyl)pyridin-3-ylthio)phenyl)-tetrahydro-2H-pyran-4-carboxamide] | 737 nM | 851 nM |  |
| Cn1nccc1C(=O)c1ccc(Sc2cccc(C3(C(N)=O)CCOCC3)c2)cc1C#N [Example 38, 4-[3-({3-cyano-4-[(1-methyl-1H-pyrazol-5-yl)carbonyl]phenyl}thio)phenyl]tetrahydro-2H-pyran-4-carboxamide] | 469 nM | 640 nM |  |
| Cn1nccc1C(=O)c1ccc(Sc2cccc(C3(C#N)CCOCC3)c2)cc1 [Example 62, 4-[3-({4-[(1-methyl-1H-pyrazol-5-yl)carbonyl]phenyl}thio)phenyl]tetrahydro-2H-pyran-4-carbonitrile] | 2160 nM | 1490 nM |  |
| Cn1nccc1-c1ccc(Sc2cc(F)cc(C3(C(N)=O)CCOCC3)c2F)cc1 [19(10), 4-(2,5-difluoro-3-{[4-(1-methyl-1H-pyrazol-5-yl)phenyl]-thio}phenyl)tetrahydro-2H-pyran-4-carboxamide] | 50.5 nM | 480 nM |  |
| Cn1nccc1-c1ccc(Sc2cccc(C3(C#N)CCOCC3)c2)cc1 [Example 49, 4-(3-{[4-(1-methyl-1H-pyrazol-5-yl)phenyl]thio}phenyl)tetrahydro-2H-pyran-4-carbonitrile] | 2710 nM | 999 nM |  |
| CC(C)n1nccc1-c1ccc(Sc2cccc(C3(C(N)=O)CCOCC3)c2)cc1 [Example 9] | 14.8 nM | 208 nM |  |
| C[C@@H]1C[C@](C#N)(c2cccc(Sc3ccc(-c4ccnn4C)cc3)c2)CCO1 [Example 82, (2R,4S)-2-methyl-4-(3-{[4-(1-methyl-1H-pyrazol-5-yl)phenyl]thio}phenyl)tetrahydro-2H-pyran-4-carbonitrile] | 1200 nM | 530 nM |  |
| C[C@H]1C[C@@](C(N)=O)(c2cccc(Sc3ccc(-c4c(Br)cnn4C)cc3)c2F)CCO1 [Example 73, (2S,4R)-4-(3-{[4-(4-bromo-1-methyl-1H-pyrazol-5-yl)phenyl]thio}-2-fluorophenyl)-2-methyltetrahydro-2H-pyran-4-carboxamide] | 13.4 nM | 672 nM |  |
| CCNC(=O)C1(c2cccc(Sc3ccc(-c4ccnn4C)cc3)c2)CCOCC1 [Example 86, N-ethyl-4-(3-{[4-(1-methyl-1H-pyrazol-5-yl)phenyl]thio}phenyl)tetrahydro-2H-pyran-4-carboxamide] | 324 nM | 565 nM |  |
| Cn1nccc1-c1ccc(Sc2cccc(C3(C(N)=O)CCOCC3)c2F)cc1 [17(7), 4-(2-fluoro-3-{[4-(1-methyl-1H-pyrazol-5-yl)phenyl]thio}-phenyl)tetrahydro-2H-pyran-4-carboxamide] | 126 nM | 256 nM |  |
| C[C@H]1C[C@@](C#N)(c2cccc(Sc3ccc(-c4ccnn4C)cc3F)c2F)CCO1 [Example 25] | 32.9 nM | 83.6 nM |  |
| C[C@H]1C[C@@](C(N)=O)(c2cccc(Sc3ccc(-c4ccnn4C)cc3F)c2F)CCO1 [Example 26, (2S,4R)-4-(2-fluoro-3-(2-fluoro-4-(1-methyl-1H-pyrazol-5-yl)phenylthio)phenyl)-2-methyl-tetrahydro-2H-pyran-4-carboxamide] | 28.4 nM | 690 nM |  |
| Cn1nccc1-c1ccc(Sc2cccc(C3(C(N)=O)CCOCC3)c2Cl)cc1 [Example 87, 4-(2-chloro-3-{[4-(1-methyl-1H-pyrazol-5-yl)phenyl]thio}phenyl)tetrahydro-2H-pyran-4-carboxamide] | 1100 nM | 1010 nM |  |
